# Measured values: PubChem BioAssay AID1259407 (Chemical Carcinogenesis Research Information System (CCRIS), 2018)
# Active and inactive are the calls of the source. The rule behind the calls is not given here.
# Test system: CCRIS mutagenicity, Ames/micronucleus/aberration tests
# Assay: CCRIS mutagenicity studies
# [1] = Test System: AMES SALMONELLA TYPHIMURIUM, Strain/Indicator: TA98, Metabolic Activation: NONE, Method: PREINCUBATION
# [2] = Test System: AMES SALMONELLA TYPHIMURIUM, Strain/Indicator: TA100, Metabolic Activation: NONE, Method: PREINCUBATION
compound,measurement,setting,value
Nc1nc2ccccc2[nH]1,mutagenic call,"Test System: AMES SALMONELLA TYPHIMURIUM, Strain/Indicator: TA97, Metabolic Activation: HAMSTER, LIVER, S-9, AROCLOR 1254 (10%), Method: PREINCUBATION",inactive; negative
same,mutagenic call,"Test System: AMES SALMONELLA TYPHIMURIUM, Strain/Indicator: TA97, Metabolic Activation: HAMSTER, LIVER, S-9, AROCLOR 1254 (30%), Method: PREINCUBATION",inactive; negative
same,mutagenic call,"Test System: AMES SALMONELLA TYPHIMURIUM, Strain/Indicator: TA97, Metabolic Activation: NONE, Method: PREINCUBATION",inactive; negative
same,mutagenic call,"Test System: AMES SALMONELLA TYPHIMURIUM, Strain/Indicator: TA97, Metabolic Activation: RAT, LIVER, S-9, AROCLOR 1254 (10%), Method: PREINCUBATION",inactive; negative
same,mutagenic call,"Test System: AMES SALMONELLA TYPHIMURIUM, Strain/Indicator: TA97, Metabolic Activation: RAT, LIVER, S-9, AROCLOR 1254 (30%), Method: PREINCUBATION",inactive; negative
same,mutagenic call,"Test System: AMES SALMONELLA TYPHIMURIUM, Strain/Indicator: TA98, Metabolic Activation: HAMSTER, LIVER, S-9, AROCLOR 1254 (10%), Method: PREINCUBATION",inactive; negative
same,mutagenic call,"Test System: AMES SALMONELLA TYPHIMURIUM, Strain/Indicator: TA98, Metabolic Activation: HAMSTER, LIVER, S-9, AROCLOR 1254 (30%), Method: PREINCUBATION",inactive; negative
same,mutagenic call,[1],inactive; negative
same,mutagenic call,"Test System: AMES SALMONELLA TYPHIMURIUM, Strain/Indicator: TA98, Metabolic Activation: RAT, LIVER, S-9, AROCLOR 1254 (10 OR 30%), Method: PREINCUBATION",inactive; negative
same,mutagenic call,"Test System: AMES SALMONELLA TYPHIMURIUM, Strain/Indicator: TA98, Metabolic Activation: RAT, LIVER, S-9, AROCLOR 1254, Method: PREINCUBATION",active; positive
same,mutagenic call,"Test System: AMES SALMONELLA TYPHIMURIUM, Strain/Indicator: TA100, Metabolic Activation: HAMSTER, LIVER, S-9, AROCLOR 1254 (10%), Method: PREINCUBATION",inactive; negative
same,mutagenic call,"Test System: AMES SALMONELLA TYPHIMURIUM, Strain/Indicator: TA100, Metabolic Activation: HAMSTER, LIVER, S-9, AROCLOR 1254 (30%), Method: PREINCUBATION",inactive; negative
same,mutagenic call,[2],inactive; negative
same,mutagenic call,"Test System: AMES SALMONELLA TYPHIMURIUM, Strain/Indicator: TA100, Metabolic Activation: RAT, LIVER, S-9, AROCLOR 1254 (5%), Method: PREINCUBATION",inactive; negative
same,mutagenic call,"Test System: AMES SALMONELLA TYPHIMURIUM, Strain/Indicator: TA100, Metabolic Activation: RAT, LIVER, S-9, AROCLOR 1254 (10 OR 30%), Method: PREINCUBATION",inactive; negative
same,mutagenic call,"Test System: AMES SALMONELLA TYPHIMURIUM, Strain/Indicator: TA100, Metabolic Activation: RAT, LIVER, S-9, AROCLOR 1254, Method: PREINCUBATION",inactive; negative
same,mutagenic call,"Test System: AMES SALMONELLA TYPHIMURIUM, Strain/Indicator: TA1535, Metabolic Activation: HAMSTER, LIVER, S-9, AROCLOR 1254 (10%), Method: PREINCUBATION",inactive; negative
same,mutagenic call,"Test System: AMES SALMONELLA TYPHIMURIUM, Strain/Indicator: TA1535, Metabolic Activation: HAMSTER, LIVER, S-9, AROCLOR 1254 (30%), Method: PREINCUBATION",inactive; negative
same,mutagenic call,"Test System: AMES SALMONELLA TYPHIMURIUM, Strain/Indicator: TA1535, Metabolic Activation: NONE, Method: PREINCUBATION",inactive; negative
same,mutagenic call,"Test System: AMES SALMONELLA TYPHIMURIUM, Strain/Indicator: TA1535, Metabolic Activation: RAT, LIVER, S-9, AROCLOR 1254 (10 OR 30%), Method: PREINCUBATION",inactive; negative
same,mutagenic call,"Test System: AMES SALMONELLA TYPHIMURIUM, Strain/Indicator: TA1537, Metabolic Activation: HAMSTER, LIVER, S-9, AROCLOR 1254 (10%), Method: PREINCUBATION",inactive; negative
same,mutagenic call,"Test System: AMES SALMONELLA TYPHIMURIUM, Strain/Indicator: TA1537, Metabolic Activation: HAMSTER, LIVER, S-9, AROCLOR 1254 (30%), Method: PREINCUBATION",inactive; negative
same,mutagenic call,"Test System: AMES SALMONELLA TYPHIMURIUM, Strain/Indicator: TA1537, Metabolic Activation: NONE, Method: PREINCUBATION",inactive; negative
same,mutagenic call,"Test System: AMES SALMONELLA TYPHIMURIUM, Strain/Indicator: TA1537, Metabolic Activation: RAT, LIVER, S-9, AROCLOR 1254 (10 OR 30%), Method: PREINCUBATION",inactive; negative
Nc1nc2ccc([N+](=O)[O-])cc2s1,mutagenic call,"Test System: AMES SALMONELLA TYPHIMURIUM, Strain/Indicator: TA98, Metabolic Activation: HAMSTER, LIVER, S-9, AROCLOR 1254, Method: STANDARD PLATE",active; positive
same,mutagenic call,"Test System: AMES SALMONELLA TYPHIMURIUM, Strain/Indicator: TA98, Metabolic Activation: NONE, Method: STANDARD PLATE",active; positive
same,mutagenic call,"Test System: AMES SALMONELLA TYPHIMURIUM, Strain/Indicator: TA98, Metabolic Activation: RAT, LIVER, S-9, AROCLOR 1254, Method: STANDARD PLATE",active; positive
same,mutagenic call,"Test System: AMES SALMONELLA TYPHIMURIUM, Strain/Indicator: TA100, Metabolic Activation: HAMSTER, LIVER, S-9, AROCLOR 1254, Method: STANDARD PLATE",active; positive
same,mutagenic call,"Test System: AMES SALMONELLA TYPHIMURIUM, Strain/Indicator: TA100, Metabolic Activation: NONE, Method: STANDARD PLATE",inactive; negative
same,mutagenic call,"Test System: AMES SALMONELLA TYPHIMURIUM, Strain/Indicator: TA100, Metabolic Activation: RAT, LIVER, S-9, AROCLOR 1254, Method: STANDARD PLATE",active; positive
same,mutagenic call,"Test System: AMES SALMONELLA TYPHIMURIUM, Strain/Indicator: TA1535, Metabolic Activation: HAMSTER, LIVER, S-9, AROCLOR 1254, Method: STANDARD PLATE",active; positive
same,mutagenic call,"Test System: AMES SALMONELLA TYPHIMURIUM, Strain/Indicator: TA1535, Metabolic Activation: NONE, Method: STANDARD PLATE",inactive; negative
same,mutagenic call,"Test System: AMES SALMONELLA TYPHIMURIUM, Strain/Indicator: TA1535, Metabolic Activation: RAT, LIVER, S-9, AROCLOR 1254, Method: STANDARD PLATE",inactive; negative
same,mutagenic call,"Test System: AMES SALMONELLA TYPHIMURIUM, Strain/Indicator: TA1537, Metabolic Activation: HAMSTER, LIVER, S-9, AROCLOR 1254, Method: STANDARD PLATE",active; positive
same,mutagenic call,"Test System: AMES SALMONELLA TYPHIMURIUM, Strain/Indicator: TA1537, Metabolic Activation: NONE, Method: STANDARD PLATE",inactive; negative
same,mutagenic call,"Test System: AMES SALMONELLA TYPHIMURIUM, Strain/Indicator: TA1537, Metabolic Activation: RAT, LIVER, S-9, AROCLOR 1254, Method: STANDARD PLATE",inactive; negative
same,mutagenic call,"Test System: AMES SALMONELLA TYPHIMURIUM, Strain/Indicator: TA1538, Metabolic Activation: HAMSTER, LIVER, S-9, AROCLOR 1254, Method: STANDARD PLATE",active; positive
same,mutagenic call,"Test System: AMES SALMONELLA TYPHIMURIUM, Strain/Indicator: TA1538, Metabolic Activation: NONE, Method: STANDARD PLATE",active; positive
same,mutagenic call,"Test System: AMES SALMONELLA TYPHIMURIUM, Strain/Indicator: TA1538, Metabolic Activation: RAT, LIVER, S-9, AROCLOR 1254, Method: STANDARD PLATE",active; positive
same,mutagenic call,"Test System: MOUSE LYMPHOMA, Strain/Indicator: L5178Y (TK+/TK-), Metabolic Activation: NONE, Method: SUSPENSION/PLATE",inactive; negative. reevaluation of results: negative
same,mutagenic call,"Test System: MOUSE LYMPHOMA, Strain/Indicator: L5178Y (TK+/TK-), Metabolic Activation: RAT, LIVER, S-9, AROCLOR 1254, Method: SUSPENSION/PLATE",inactive; negative. reevaluation of results: negative
O=C(OC[C@@H]1O[C@H](OC(=O)c2cc(O)c(O)c(OC(=O)c3cc(O)c(O)c(O)c3)c2)[C@@H](OC(=O)c2cc(O)c(O)c(OC(=O)c3cc(O)c(O)c(O)c3)c2)[C@H](OC(=O)c2cc(O)c(O)c(OC(=O)c3cc(O)c(O)c(O)c3)c2)[C@H]1OC(=O)c1cc(O)c(O)c(OC(=O)c2cc(O)c(O)c(O)c2)c1)c1cc(O)c(O)c(OC(=O)c2cc(O)c(O)c(O)c2)c1,mutagenic call,[1],inactive; negative
same,mutagenic call,"Test System: AMES SALMONELLA TYPHIMURIUM, Strain/Indicator: TA98, Metabolic Activation: RAT LIVER S-9, Method: PREINCUBATION",inactive; negative
same,mutagenic call,[2],inactive; negative
same,mutagenic call,"Test System: AMES SALMONELLA TYPHIMURIUM, Strain/Indicator: TA100, Metabolic Activation: RAT LIVER S-9, Method: PREINCUBATION",inactive; negative
same,mutagenic call,"Test System: AMES SALMONELLA TYPHIMURIUM, Strain/Indicator: TA102, Metabolic Activation: RAT LIVER S-9, PHENOBARBITAL AND 5,6-BENZOFLAVONE, Method: STANDARD PLATE",inactive; negative
same,mutagenic call,"Test System: AMES SALMONELLA TYPHIMURIUM, Strain/Indicator: TA2638, Metabolic Activation: RAT LIVER S-9, PHENOBARBITAL AND 5,6-BENZOFLAVONE, Method: STANDARD PLATE",inactive; negative
same,mutagenic call,"Test System: E. COLI, Strain/Indicator: WP2 (PKM101), Metabolic Activation: RAT LIVER S-9, PHENOBARBITAL AND 5,6-BENZOFLAVONE, Method: STANDARD PLATE",inactive; negative
same,mutagenic call,"Test System: E. COLI, Strain/Indicator: WP2 UVRA (PKM101), Metabolic Activation: RAT LIVER S-9, PHENOBARBITAL AND 5,6-BENZOFLAVONE, Method: STANDARD PLATE",inactive; negative
